“Also recorded” adds a separate entry of the source.
What was measured:
p21-deficient mice = assay: Fasting glucose in diet-induced diabetic p21-deficient mice; assay type: in vivo; conditions: CPX as in wt controls, delayed response (FIG. 5A)
Source text: In Vivo Analysis of Anti-Diabetic Effect of CPX. Mice were randomly grouped. A group of C57BI/6 mice 4-5 weeks old, were fed with either a solution of 10% sucrose and a diet containing 40% kcal as a high-fat diet (HFD; Open Source Diets (New Brunswick, N.J., USA) D12451, 40% calories/fat with free access to (10%) sweetened water (sucrose) or a control chow diet containing 10% of kcal as fat (low-fat diet) and drinking water with no added sucrose (control). Mice with a glucose concentration exceeding 180 mg/dL were considered diabetic, after 2 consecutive glucose measurements. The blood glucose levels were measured using an Accu-Check blood glucose monitor (Roche, Indianapolis, Ind., USA) using blood sample collected from the tail vein. Diabetic mice were treated with either treated daily for 20 days by oral gavages with CPX (25 mg/kg) prepared in a solution (4% ethanol, 5.2% Tween 80, and 5.2% PEG 400) or vehicle control. […]
Glucose Level Determination and Intraperitoneal Insulin Tolerance Test. […] Glucose levels of mice were measured by an Accu-Chek Active meter (ROCHE) with blood sample obtained from the tail. […] For insulin resistance test, mice were injected intraperitoneally at a dose of 0.75 units/kg with human insulin (0.75 U/kg body weight; Sigma) at different time points as indicated, as for glucose tolerance after insulin injection and blood glucose was measured as described. […]

[1] = tested on: wt mice receiving normal diet; assay: Fasting glucose in non-diabetic wild type mice on normal diet; assay type: in vivo, C57BI/6 mice; conditions: non-diabetic wt mice on normal diet with CPX (FIG. 5B, FIG. 7A)
Source text: In Vivo Analysis of Anti-Diabetic Effect of CPX. Mice were randomly grouped. A group of C57BI/6 mice 4-5 weeks old, were fed with either a solution of 10% sucrose and a diet containing 40% kcal as a high-fat diet (HFD; Open Source Diets (New Brunswick, N.J., USA) D12451, 40% calories/fat with free access to (10%) sweetened water (sucrose) or a control chow diet containing 10% of kcal as fat (low-fat diet) and drinking water with no added sucrose (control). Mice with a glucose concentration exceeding 180 mg/dL were considered diabetic, after 2 consecutive glucose measurements. The blood glucose levels were measured using an Accu-Check blood glucose monitor (Roche, Indianapolis, Ind., USA) using blood sample collected from the tail vein. […] Glucose levels of mice were measured by an Accu-Chek Active meter (ROCHE) with blood sample obtained from the tail. […] For insulin resistance test, mice were injected intraperitoneally at a dose of 0.75 units/kg with human insulin (0.75 U/kg body weight; Sigma) at different time points as indicated, as for glucose tolerance after insulin injection and blood glucose was measured as described. In order to test if the antidiabetic activity of CPX was elicited only in diabetic mice or in non-diabetic mice as well, plasma glucose levels were assessed in wt mice that were receiving normal diet in combination with CPX.

diabetic wt mice = assay: Fasting glucose in diet-induced diabetic wild type mice; assay type: in vivo, C57BI/6 mice; conditions: wt mice diabetic by high fat diet and sweetened water; CPX 25 mg/kg daily (FIG. 5A)
Source text: In Vivo Analysis of Anti-Diabetic Effect of CPX. Mice were randomly grouped. A group of C57BI/6 mice 4-5 weeks old, were fed with either a solution of 10% sucrose and a diet containing 40% kcal as a high-fat diet (HFD; Open Source Diets (New Brunswick, N.J., USA) D12451, 40% calories/fat with free access to (10%) sweetened water (sucrose) or a control chow diet containing 10% of kcal as fat (low-fat diet) and drinking water with no added sucrose (control). Mice with a glucose concentration exceeding 180 mg/dL were considered diabetic, after 2 consecutive glucose measurements. The blood glucose levels were measured using an Accu-Check blood glucose monitor (Roche, Indianapolis, Ind., USA) using blood sample collected from the tail vein. Diabetic mice were treated with either treated daily for 20 days by oral gavages with CPX (25 mg/kg) prepared in a solution (4% ethanol, 5.2% Tween 80, and 5.2% PEG 400) or vehicle control. […] Glucose levels of mice were measured by an Accu-Chek Active meter (ROCHE) with blood sample obtained from the tail. […] For insulin resistance test, mice were injected intraperitoneally at a dose of 0.75 units/kg with human insulin (0.75 U/kg body weight; Sigma) at different time points as indicated, as for glucose tolerance after insulin injection and blood glucose was measured as described. […]

## Cc1cc(C2CCCCC2)n(O)c(=O)c1 [CPX, 6-cyclohexyl-1-hydroxy-4-methylpyridin-2(1H)-one]
p21-deficient mice
  glucose regulation (fasting glucose): responded significantly to CPX in terms of glucose regulation
[1]
  glucose levels (fasting): no reduction of glucose levels was recorded; also recorded: not affected
Diabetic wt mice
  blood glucose levels (fasting glucose): effectively improved glucose homeostasis causing reduction of blood glucose levels

Reference: patent publication US10576151B2, “Ciclopirox for use in modulation of glucose homeostasis” (UNIVERSITY OF SOUTH CAROLINA, priority 2015, dated 2020)
